# Experimental data: patent US10801077B2, “Influenza A virus variants” (Vertex Pharmaceuticals Incorporated, priority 2014, dated 2020)
# How the values were obtained:
# [1] = system: A/Puerto Rico/8/34 (A/H1N1) influenza virus isolates; type: cell-based
# [2] = system: A/California/07/2009 (A/H1N1) influenza virus isolates; type: cell-based
compound,measurement,setting,value
CC(C)(C)[C@@H](CC(=O)O)Nc1nc(-c2c[nH]c3ncc(F)cc23)ncc1F [Compound 1],EC50 shift,[1],286 fold
same,EC50 shift,[2],500 fold
